Where two headings read alike, the source gives them in different places.
Columns and labels:
[1] = tested on: bleomycin-induced lung fibrotic remodeling; conditions: rat, preventive and therapeutic protocols; cited from earlier work
[2] = tested on: bleomycin-induced lung fibrotic remodeling; conditions: mice, preventive and therapeutic protocols; cited from earlier work
human PDE5 = molecular target: T1, human PDE5 (Homo sapiens, UniProt O76074); assay: Inhibition of PDE5 activity (SPA, [3H]cGMP, platelet lysate); assay type: biochemical; conditions: 0.5 μM cGMP, binned: below 8 / between 8 and 9, read-out: PDE5 inhibitory values measured as −logIC50 (converted)
T1 construct: from tissue; host or cells: human platelets from fresh donor blood (platelet lysate)
Experimental: As a source for human PDE5, platelets were used. For that purpose, 150 ml fresh blood from human donors anticoagulated with citrate [final concentration 0.3% (w/v)] was centrifuged at 200 g for 10 min to obtain the so-called platelet-rich-plasma (PRP) as a supernatant. 1/10 volume of ACD solution (85 mM Na3-citrate, 111 mM D-glucose, 71 mM citric acid, pH 4.4) was added to 9/10 volume of PRP. After centrifugation (1,400 g, 10 min) the cell pellet was resuspended in 3 ml homogenization buffer (NaCl 140 mM, KCl 3.8 mM, EGTA (ethylene glycol tetraacetic acid) 1 mM, MgCl2 1 mM, Tris-HCl 20 mM, beta-mercaptoethanol 1 mM, pH 8.2) plus protease-inhibitor mix resulting in final concentrations of 0.5 mM Pefablock (Roche), 10 μM Leupeptin, 5 μM Trypsine inhibitor, 2 mM Benzamidin and 10 μM Pepstatin A. The suspension was sonicated and thereafter centrifuged for 15 min at 10,000 g. The resulting supernatant (platelet lysate) was used for enzymatic assays.
PDE5 activities were measured in a 96-well platform using SPA (scintillation proximity assay) yttrium silicate beads (RPNQ1050 from GE Healthcare). In a first step the PDE activity operated hydrolysis of either [^3H] cGMP (substrate) into [^3H] 5′GMP. In a second step substrate and product were distinguished following addition of SPA yttrium silicate beads. Indeed, in the presence of zinc sulphate the linear [^3H] […] Close proximity of bound [^3H] […] The test volume was 100 μl and contained 20 mM Tris buffer (pH 7.4), 0.1 mg of BSA (bovine serum albumin)/ml, 5 mM Mg^2+, 1 μM motapizone (PDE3 Inhibitor), 10 nM PDE2 inhibitor 2-(3,4-dimethoxybenzyl)-7-[(1R,2R)-2-hydroxy-1-(2-phenylethyl)propyl]-5-methylimidazo[5,1-f][1,2,4]triazin-4(3H)-one, 0.5 μM cGMP (cyclic guanosine monophosphate) (including about 50,000 cpm of [3H]cGMP as a tracer) (substrate), 1 μl of the respective compound dilution in dimethylsulfoxide (DMSO) and sufficient PDE5-containing platelet lysat (10,000×g supernatant, see above) to ensure that 10-20% of the cGMP was converted under the said experimental conditions. […] After a preincubation of 5 min at 37° C., the reaction was commenced by adding the substrate (cGMP) and the assay was incubated for a further 15 min. The reaction was terminated by adding SPA beads (50 μl). In agreement with the manufacturer's instructions, the SPA beads had previously been resuspended in water, but were then diluted 1:3 (v/v) in water. This diluted solution also contained 3 mM 8-methoxymethyl-3-isobutyl-1-methylxanthine (IBMX) to ensure a complete block of PDE activity. Once the beads were sedimented (>30 min), the MTP's were analyzed in commercially available luminescence detection devices. The corresponding IC50 values of the compounds for inhibition of PDE activity were determined from the concentration-effect curves by means of non-linear regression.
For the following compounds PDE5 inhibitory values [measured as −logIC50 (mol/l)] below 8 and between 8 and 9 have been determined. The numbers of the compounds correspond to the numbers of the examples.

PDE4B1 = molecular target: T2, PDE4B1 (Homo sapiens, UniProt Q07343); assay: Inhibition of PDE4B1 activity (SPA, [3H]cAMP); assay type: biochemical; conditions: recombinant PDE4B1, 0.5 μM cAMP; binned: below 8 / between 8 and 9; read-out: PDE4B1 inhibitory values measured as −logIC50 (converted)
T2 construct: made in house; host or cells: SF21 insect cells (baculovirus; virus prepared in SF9 cells)
T2 sequence (Q07343 whole entry): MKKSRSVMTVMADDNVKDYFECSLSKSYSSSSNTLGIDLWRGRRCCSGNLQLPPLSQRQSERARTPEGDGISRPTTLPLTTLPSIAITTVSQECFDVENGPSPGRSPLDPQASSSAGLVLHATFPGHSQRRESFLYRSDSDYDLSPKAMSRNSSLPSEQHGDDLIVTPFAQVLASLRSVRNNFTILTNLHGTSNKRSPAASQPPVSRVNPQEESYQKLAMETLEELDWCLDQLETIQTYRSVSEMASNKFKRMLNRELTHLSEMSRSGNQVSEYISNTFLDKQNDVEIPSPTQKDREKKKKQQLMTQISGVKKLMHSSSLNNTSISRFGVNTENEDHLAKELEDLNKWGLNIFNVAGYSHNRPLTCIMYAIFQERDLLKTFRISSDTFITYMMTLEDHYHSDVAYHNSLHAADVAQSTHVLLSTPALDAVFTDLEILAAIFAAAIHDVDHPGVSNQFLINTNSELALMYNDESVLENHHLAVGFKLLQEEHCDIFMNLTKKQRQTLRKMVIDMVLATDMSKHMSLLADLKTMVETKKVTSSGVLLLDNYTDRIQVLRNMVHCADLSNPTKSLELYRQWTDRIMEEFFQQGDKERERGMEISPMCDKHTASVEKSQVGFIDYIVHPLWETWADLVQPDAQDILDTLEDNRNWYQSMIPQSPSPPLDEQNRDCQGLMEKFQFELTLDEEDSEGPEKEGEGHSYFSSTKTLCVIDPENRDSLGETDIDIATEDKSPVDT
Experimental: The PDE4B1 (GB no. L20966) was a gift of Prof. M. Conti (Stanford University, USA). It was amplified from the original plasmid (pCMV5) via PCR with primers Rb18 (5′-[…]-3′) and Rb10 (5′-[…]-3′) and cloned into the pCR-Bac vector (Invitrogen, Groningen, NL).
The recombinant baculovirus was prepared by means of homologous recombination in SF9 insect cells. The expression plasmids were cotransfected with Baculo-Gold DNA (Pharmingen, Hamburg) using a standard protocol (Pharmingen, Hamburg). Wt virus-free recombinant virus supernatants were selected using plaque assay methods. After that, high-titre virus supernatants were prepared by amplifying 3 times. PDE4B1 was expressed in SF21 cells by infecting 2×10^6 cells/ml with an MOI (multiplicity of infection) between 1 and 10 in the serum-free SF900 medium (GIBCO Life Technologies, Karlsruhe, Germany). The cells were cultured at 28° C. for 48-72 hours, after which they were pelleted for 5-10 min at 1000×g and 4° C.
The SF21 insect cells were resuspended, at a concentration of approx. 10^7 cells/ml, in ice-cold (4° C.) homogenization buffer (20 mM Tris, pH 8.2, containing the following additions: 140 mM NaCl, 3.8 mM KCl, 1 mM EGTA, 1 mM MgCl2, 10 mM β-mercaptoethanol, 2 mM benzamidine, 0.4 mM Pefablock, 10 μM leupeptin, 10 μM pepstatin A, 5 μM trypsin inhibitor) and disrupted by ultrasonication. The homogenate was then centrifuged for 10 min at 1000×g and the supernatant was stored at −80° C. until subsequent use (see below). The protein content was determined by the Bradford method (BioRad, Munich) using BSA (Bovine serum albumin) as the standard.
PDE4B1 activities were measured in a 96-well platform using SPA (scintillation proximity assay) yttrium silicate beads (RPNQ1050 from GE Healthcare). In a first step the PDE activity operated hydrolysis of either [^3H] cAMP (substrate) into [^3H] 5′AMP. In a second step substrate and product were distinguished following addition of SPA yttrium silicate beads. Indeed, in the presence of zinc sulphate the linear [^3H] […] Close proximity of bound [^3H] […] The test volume was 100 μl and finally contained 20 mM Tris buffer (pH 7.4), 0.1 mg/ml of BSA, 5 mM Mg^2+, 0.5 μM cAMP (including about 50,000 cpm of [3H]cAMP) as substrate, 1 μl of the respective substance dilution in DMSO and sufficient recombinant PDE (1000×g supernatant, see above) to ensure that 10-20% of the cAMP was converted under the said experimental conditions. […] After a preincubation of 5 min at 37° C., the reaction was commenced by adding the substrate (cAMP) and the assays were incubated for a further 15 min. Reactions were terminated by adding SPA beads (50 μl). In agreement with the manufacturer's instructions, the SPA beads had previously been resuspended in water, but were then diluted 1:3 (v/v) in water. This diluted solution further contained 3 mM IBMX (isobutylmethylxanthine) to ensure a complete block of PDE activity. Once the beads were sedimented (>30 min), the MTP's (microtiter plate) were analyzed in commercially available luminescence detection devices. The corresponding IC50 values of the compounds for inhibition of PDE4B1 activity were determined from the concentration-effect curves by means of non-linear regression.
For the following compounds PDE4B1 inhibitory values [measured as −logIC50 (mol/l)] below 8 and between 8 and 9 have been determined. The numbers of the compounds correspond to the numbers of the examples.

[3] = tested on: bleomycin-induced pulmonary fibrosis and pulmonary hypertension; conditions: in vivo; cited from earlier work
pulmonary fibrosis = conditions: patients with pulmonary fibrosis, open-label trials; cited from earlier work

Structure (SMILES)	IC50 (human PDE5) [nM]	IC50 (PDE4B1) [nM]	further results
O=C(Nc1c(Cl)cncc1Cl)c1ccc(OC(F)F)c(OCC2CC2)c1 [roflumilast]	–	–	effect on bleomycin-induced lung fibrotic remodeling [1]: alleviate bleomycin-induced lung fibrotic remodeling; effect on bleomycin-induced lung fibrotic remodeling [2]: alleviate bleomycin-induced lung fibrotic remodeling
CCOc1cc2c(cc1OC)C(c1ccc(C(=O)N3CCC(n4c(=O)c5sc(-c6ccc7c(c6)OCO7)cc5n(Cc5ccc(OC)c(F)c5)c4=O)CC3)cc1)=N[C@@H]1CCSC[C@H]21 [Example 8, 6-(1,3-benzodioxol-5-yl)-3-[1-({4-[(4aR,10bR)-9-ethoxy-8-methoxy-3,4,4a,10b-tetrahydro-1H-thiopyrano[4,3-c]isoquinolin-6-yl]phenyl}carbonyl)piperidin-4-yl]-1-(3-fluoro-4-methoxybenzyl)thieno[3,2-d]pyrimidine-2,4(1H,3H)-dione]	1 to 10	1 to 10	–
CCOc1cc2c(cc1OC)C(c1ccc(C(=O)N3CCC(n4c(=O)c5sc(-c6cc(F)ccc6OC)cc5n(Cc5ccc(OC)c(F)c5)c4=O)CC3)cc1)=N[C@@H]1CCSC[C@H]21 [Example 10, 3-[1-({4-[(4aR,10bR)-9-ethoxy-8-methoxy-3,4,4a,10b-tetrahydro-1H-thiopyrano[4,3-c]isoquinolin-6-yl]phenyl}carbonyl)piperidin-4-yl]-1-(3-fluoro-4-methoxybenzyl)-6-(5-fluoro-2-methoxyphenyl)thieno[3,2-d]pyrimidine-2,4(1H,3H)-dione]	1 to 10	1 to 10	–
CCCc1nn(C)c2c(=O)[nH]c(-c3cc(S(=O)(=O)N4CCN(C)CC4)ccc3OCC)nc12 [sildenafil]	–	–	effect on bleomycin-induced pulmonary fibrosis and pulmonary hypertension [3]: attenuates bleomycin-induced pulmonary fibrosis and pulmonary hypertension; exercise tolerance (pulmonary fibrosis): increases exercise tolerance; lung hemodynamic parameters (vascular resistance and ventilation/perfusion matching) (pulmonary fibrosis): improves lung hemodynamic parameters
CCOc1cc2c(cc1OC)C(c1ccc(C(=O)N3CCC(n4c(=O)c5sc(-c6ccccc6OC)cc5n(Cc5ccc(OC)c(F)c5)c4=O)CC3)cc1)=N[C@@H]1CCSC[C@H]21 [Example 19, 3-[1-({4-[(4aR,10bR)-9-ethoxy-8-methoxy-3,4,4a,10b-tetrahydro-1H-thiopyrano[4,3-c]isoquinolin-6-yl]phenyl}carbonyl)piperidin-4-yl]-1-(3-fluoro-4-methoxybenzyl)-6-(2-methoxyphenyl)thieno[3,2-d]pyrimidine-2,4(1H,3H)-dione]	1 to 10	1 to 10	–

Reference: patent publication US20140113877A1, “NOVEL 3,4,4A,10B-TETRAHYDRO-1H-THIOPYRANO[4,3-C] ISOQUINOLINE COMPOUNDS” (Takeda GmbH, priority 2011, published 2014)
